± gives the standard deviation of the averaged measurements.
Columns and labels:
DASATINIB = compound: Cc1nc(Nc2ncc(C(=O)Nc3c(C)cccc3Cl)s2)cc(N2CCN(CCO)CC2)n1 [DASATINIB]; assay: surviving fraction relative to DMSO-only wells; higher = less growth inhibition; conditions: exposure time: 5 days
How it was run: (§1)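 Lines were retained only if, across three screens, replicate Pearson r was >0.7 and median Z' was >0.3. Viability was measured as CellTiter-Glo luminescence and reported as surviving fraction relative to the median of DMSO-only wells. Readings followed 10 minutes at room temperature, after log-phase tumour cells seeded at 250–500 per well in 384-well plates had been exposed, from 24 hours after seeding, continuously for five days to inhibitors at 0.5, 1, 5, 10, 50, 100, 500 and 1000 nM.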

SORAFENIB = compound: CNC(=O)c1cc(Oc2ccc(NC(=O)Nc3ccc(Cl)c(C(F)(F)F)c3)cc2)ccn1 [SORAFENIB]; assay: as above; conditions: exposure time: 5 days
How it was run: as §1

Test System	surviving fraction (DASATINIB; 0.5 nM)	surviving fraction (DASATINIB; 1 nM)	surviving fraction (DASATINIB; 5 nM)	surviving fraction (DASATINIB; 10 nM)	surviving fraction (DASATINIB; 50 nM)	surviving fraction (DASATINIB; 100 nM)	surviving fraction (DASATINIB; 500 nM)	surviving fraction (DASATINIB; 1000 nM)	surviving fraction (SORAFENIB; 0.5 nM)	surviving fraction (SORAFENIB; 1 nM)	surviving fraction (SORAFENIB; 50 nM)	surviving fraction (SORAFENIB; 100 nM)	surviving fraction (SORAFENIB; 500 nM)	surviving fraction (SORAFENIB; 1000 nM)	surviving fraction (SORAFENIB; 5 nM)	surviving fraction (SORAFENIB; 10 nM)
CCK81 LARGE INTESTINE	0.942 ± 0.19	0.774 ± 0.035	0.741 ± 0.13	0.744 ± 0.059	0.577 ± 0.1	0.411 ± 0.1	0.0847 ± 0.02	0.0473 ± 0.012								
HMT3552 BREAST	0.913 ± 0.043	0.848 ± 0.067	0.705 ± 0.013	0.612 ± 0.063	0.259 ± 0.0081	0.15 ± 0.017	0.105 ± 0.0076	0.123 ± 0.021	1.1	1.03	1.33	1.29	1.36	1.29		
G292 BONE	0.94 ± 0.04	0.894 ± 0.036	0.811 ± 0.049	0.683 ± 0.032	0.348 ± 0.013	0.269 ± 0.033	0.213 ± 0.018	0.2077 ± 0.0011	0.973 ± 0.051	0.967 ± 0.034	1.01 ± 0.058	0.96 ± 0.016	0.918 ± 0.025		1.01 ± 0.02	1.02 ± 0.04
HCC38 BREAST	0.962 ± 0.17	0.868 ± 0.087	0.697 ± 0.043	0.896 ± 0.17	1.01 ± 0.18	0.911 ± 0.16	0.664 ± 0.1	0.583 ± 0.12	1.19 ± 0.19		1.26 ± 0.29	1.32 ± 0.21	1.29 ± 0.26	1.22 ± 0.26	1.27 ± 0.14	1.18 ± 0.16
HS578T BREAST	0.862 ± 0.13	0.829 ± 0.15	0.669 ± 0.051	0.593 ± 0.044	0.343 ± 0.029	0.252 ± 0.04	0.125 ± 0.02	0.126 ± 0.012	0.671 ± 0.16	0.862 ± 0.077	0.831 ± 0.15	0.794 ± 0.034			0.766 ± 0.015	0.776 ± 0.018
HMLE3 BREAST	0.898 ± 0.042	0.856 ± 0.067	0.856 ± 0.02	0.7 ± 0.013	0.776 ± 0.029	0.716 ± 0.043	0.588 ± 0.023	0.553 ± 0.033	0.899 ± 0.033	1 ± 0.0095	1.3 ± 0.044	1.41 ± 0.045	1.41 ± 0.021	1.41 ± 0.079	1.08 ± 0.084	1.1 ± 0.045
HS57T BREAST	0.852 ± 0.056	0.814 ± 0.024	0.832 ± 0.033	0.788 ± 0.076	0.423 ± 0.022	0.37 ± 0.029	0.17 ± 0.016	0.142 ± 0.0095	0.987 ± 0.058	1.045 ± 0.0089	1.09 ± 0.057	1.15 ± 0.084	0.965 ± 0.059	0.951 ± 0.021	1.05 ± 0.031	1.082 ± 0.0081
HCC70 BREAST	1.03 ± 0.094	1.04 ± 0.027	1.15 ± 0.1	0.996 ± 0.079	0.902 ± 0.15	0.655 ± 0.057	0.574 ± 0.14	0.581 ± 0.16	1.01 ± 0.069	0.976 ± 0.082	1.22 ± 0.019	1.34 ± 0.081	1.33 ± 0.032	1.25 ± 0.16	1.1 ± 0.057	1.01 ± 0.032

Source: the supplement of paper PMC6045584
